According to PubChem BioAssay (NCI):
Where “and” joins values, the source holds several entries; their conditions need not be identical. Equal entries are not always repeated.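 Five compound concentrations were applied to cells in 96-well plates for 48 hours; endpoints were derived by simple linear interpolation of the resulting dose-response curve. GI50 = concentration required for 50% inhibition of growth. The concentration for full growth arrest is given as TGI.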 Where a SMILES comes first, the peptide text is derived from it. The star is where a group is joined. Boc = CC(C)(C)OC(=O)*

Assays:
Experiment in all cases: growth of human tumour cells (NCI), 48 h
[1] = system: HCT-15 colon
[2] = system: HOP-92 NSCLC
[3] = system: LOX IMVI melanoma
[4] = system: MALME-3M melanoma
[5] = system: NCI-H226 lung
[6] = system: NCI-H23 lung
[7] = system: SF-268 CNS
[8] = system: SK-MEL-2 melanoma
[9] = system: SW-620 colon
[10] = system: UO-31 renal

SMILES: CC(=O)Oc1ccc2c3c1O[C@H]1[C@H](O)CC[C@@]4(O)[C@@H](C2)N(C)CC[C@]314
- TGI [1]: > 100 µM
- TGI [2]: > 100 µM
- TGI [3]: > 100 µM
- TGI [4]: > 100 µM
- TGI [5]: > 100 µM
- TGI [6]: > 100 µM
- TGI [7]: > 100 µM
- TGI [8]: > 100 µM
- TGI [9]: > 100 µM
- TGI [10]: > 100 µM

SMILES: CNC1(C(=O)O)CC1
- TGI [1]: > 100 µM
- TGI [2]: > 100 µM
- TGI [3]: > 100 µM
- TGI [4]: > 100 µM
- TGI [5]: > 100 µM
- TGI [6]: > 100 µM
- TGI [7]: > 100 µM
- TGI [9]: > 100 µM

SMILES: CC1(C)N=C(C2CCCN2C(=O)OCc2ccccc2)OC1=O (centres undefined)
- TGI [1]: > 100 µM
- TGI [3]: > 100 µM
- TGI [4]: > 100 µM
- TGI [5]: > 100 µM
- TGI [6]: > 100 µM
- TGI [7]: > 100 µM
- TGI [8]: > 100 µM
- TGI [9]: > 100 µM
- TGI [10]: > 100 µM

SMILES: CC1C(C#N)(C#N)C(C#N)=C(N)C1(Cl)[N+](=O)[O-] (centres undefined)
- TGI [1]: 13.1 µM
- TGI [2]: 5.91 µM
- TGI [3]: 18.8 µM
- TGI [4]: 18.7 µM
- TGI [5]: 31.6 µM
- TGI [6]: 35.3 µM
- TGI [7]: 28.7 µM
- TGI [8]: 58 µM
- TGI [9]: 4.46 µM
- TGI [10]: 29.4 µM

SMILES: COC(=O)[C@H](Cc1ccc(O)cc1)NC(=O)[C@H](Cc1ccc(O)cc1)NC(=O)OC(C)(C)C (Boc-Tyr-Tyr-OMe)
- TGI [1]: > 100 µM
- TGI [3]: > 100 µM
- TGI [4]: > 100 µM
- TGI [5]: > 100 µM
- TGI [6]: > 100 µM
- TGI [7]: > 100 µM
- TGI [10]: > 100 µM

SMILES: Cc1cnc2[nH]c(-c3ccc4ccccc4c3)cc(=O)c2c1
- TGI [1]: 21.7 µM
- TGI [3]: > 100 µM
- TGI [5]: > 100 µM
- TGI [7]: > 100 µM
- TGI [8]: > 100 µM
- TGI [9]: > 100 µM
- TGI [10]: > 100 µM

SMILES: COc1cc(C2c3cc4c(cc3[C@@H](NCCN3CCOCC3)C3COC(=O)[C@H]23)OCO4)cc(OC)c1O (some centres undefined)
- TGI [1]: 15.7 µM and 14.2 µM
- TGI [2]: 4.73 µM and 10.4 µM
- TGI [3]: 7.95 µM and 5.02 µM
- TGI [4]: 11.2 µM and 14.2 µM
- GI50 [5]: 0.155 µM and 0.385 µM
- TGI [5]: 1.29 µM and 1.64 µM
- GI50 [6]: 1.17 µM and 2.45 µM
- TGI [6]: 4.89 µM and 7.21 µM
- TGI [7]: 10.2 µM
- TGI [8]: 14.5 µM and 11.3 µM
- TGI [9]: 18.5 µM and > 17.5 µM
- TGI [10]: 5.13 µM and 6.38 µM

SMILES: O=C(OCCNC(=O)N1CC1)OCCNC(=O)N1CC1
- TGI [1]: > 10 µM
- TGI [2]: > 10 µM
- TGI [3]: > 10 µM
- TGI [4]: > 10 µM
- TGI [5]: > 10 µM
- TGI [6]: > 10 µM
- TGI [7]: > 10 µM
- TGI [8]: > 10 µM
- TGI [9]: > 10 µM
- TGI [10]: > 10 µM

SMILES: COc1cccc(/C=C2\S/C(=N/Nc3nc(-c4ccc([N+](=O)[O-])cc4)cs3)NC2=O)c1O
- TGI [1]: 33.9 µM
- TGI [2]: 33.6 µM
- TGI [3]: 17.1 µM
- TGI [4]: 42.3 µM
- TGI [5]: 47.3 µM
- TGI [6]: 33.5 µM
- TGI [7]: 21.8 µM
- TGI [9]: 46.1 µM
- TGI [10]: 28.9 µM

SMILES: CSc1nc2c(c(=O)[nH]1)N=C(c1ccccc1)CC(c1ccccc1)N2 (centres undefined)
- TGI [2]: > 100 µM
- TGI [3]: > 100 µM
- TGI [4]: 75.6 µM
- TGI [5]: > 100 µM
- TGI [6]: 98.2 µM
- TGI [8]: 76.7 µM
- TGI [9]: > 100 µM
- TGI [10]: > 100 µM

SMILES: c1ccc(CSC2(SCc3ccccc3)CCCCC2)cc1
- TGI [1]: > 10 µM
- TGI [2]: > 10 µM
- TGI [3]: > 10 µM
- TGI [4]: > 10 µM
- TGI [5]: > 10 µM
- TGI [6]: > 10 µM
- TGI [7]: > 10 µM
- TGI [8]: > 10 µM
- TGI [9]: > 10 µM
- TGI [10]: > 10 µM

SMILES: Cc1n(Cc2ccccc2)nc2sc(N)n[n+]12
- TGI [1]: > 100 µM
- TGI [3]: > 100 µM
- TGI [4]: > 100 µM
- TGI [5]: > 100 µM
- TGI [6]: > 100 µM
- TGI [7]: > 100 µM
- TGI [8]: > 100 µM
- TGI [9]: > 100 µM
- TGI [10]: > 100 µM

SMILES: Cn1cc(-c2csc(-c3cn(C)c4ccccc34)n2)c2ccccc21
- TGI [1]: > 100 µM
- TGI [2]: 94.5 µM
- TGI [3]: > 100 µM
- TGI [4]: 70 µM
- TGI [5]: > 100 µM
- TGI [6]: > 100 µM
- TGI [7]: > 100 µM
- TGI [8]: > 100 µM
- TGI [9]: > 100 µM
- TGI [10]: > 100 µM

SMILES: COc1ccc(/C=C2\C[C@H]3[C@@H]4CCC5=CC(=O)CC[C@]5(C)[C@H]4CC[C@]3(C)C2=O)cc1OC
- TGI [1]: > 100 µM
- TGI [2]: > 100 µM
- TGI [3]: > 100 µM
- TGI [4]: > 100 µM
- TGI [5]: > 100 µM
- TGI [6]: > 100 µM
- TGI [7]: > 100 µM
- TGI [8]: 43.6 µM
- TGI [9]: > 100 µM
- TGI [10]: 6.85 µM

SMILES: CCOC(=O)c1cccc(NC(=O)CI)c1
- TGI [2]: 3.57 µM
- TGI [4]: 2.98 µM
- TGI [6]: 0.521 µM
- TGI [8]: 2.4 µM
- TGI [9]: 1.64 µM
- TGI [10]: 0.43 µM

SMILES: O=c1oc2c(Cl)cc(Cl)cc2cc1C1=CSC2=NCCN12
- TGI [1]: > 100 µM
- TGI [2]: > 100 µM
- TGI [3]: > 100 µM
- TGI [6]: > 100 µM
- TGI [8]: > 100 µM
- TGI [9]: > 100 µM
- TGI [10]: > 100 µM

SMILES: Cc1ccc(C(=O)N/N=C(\N=Nc2ccc(C(=O)O)cc2)c2ccc(N(CCC#N)CCC#N)cc2C)cc1
- TGI [1]: > 100 µM
- TGI [2]: > 100 µM
- TGI [3]: > 100 µM
- TGI [5]: > 100 µM
- TGI [6]: > 100 µM
- TGI [8]: > 100 µM
- TGI [9]: > 100 µM
- TGI [10]: > 100 µM

SMILES: COc1cc(OC)c2[nH]c3c(O)c(-c4c(C)cc5c([nH]c6c(OC)cc(OC)cc65)c4O)c(C)cc3c2c1
- GI50 [1]: 8.28 µM
- TGI [1]: 16.9 µM
- TGI [2]: 15.6 µM
- TGI [3]: 14.6 µM
- TGI [5]: 17.6 µM
- GI50 [6]: 8.2 µM
- TGI [6]: 16.7 µM
- TGI [7]: 15.9 µM
- TGI [8]: 17.4 µM
- TGI [9]: 20.3 µM
- GI50 [10]: 6.83 µM
- TGI [10]: 13.3 µM

SMILES: O=CN1CCN(C(=O)c2ccc(Cl)c(Cl)c2)C1=S
- TGI [1]: 43 µM
- TGI [3]: 25.9 µM
- TGI [4]: 39.1 µM
- TGI [5]: 39.8 µM
- TGI [6]: 41 µM
- TGI [7]: 39.3 µM
- TGI [8]: 30.6 µM
- TGI [9]: 42.1 µM

SMILES: O=C(N/N=C(/COc1ccccc1)N=Cc1cccnc1)c1ccncc1
- TGI [1]: > 100 µM
- TGI [3]: > 100 µM
- TGI [4]: > 100 µM
- TGI [5]: > 100 µM
- TGI [6]: > 100 µM
- TGI [7]: > 100 µM
- TGI [8]: > 100 µM
- TGI [9]: > 100 µM

SMILES: Cc1ccc2c(/C=C/c3ccc(N(C)C)cc3)ccc(C(C)C)cc1-2
- TGI [2]: > 100 µM
- TGI [3]: > 100 µM
- TGI [4]: > 100 µM
- TGI [5]: > 100 µM
- TGI [6]: > 100 µM
- TGI [7]: > 100 µM
- TGI [8]: > 100 µM
- TGI [9]: > 100 µM
- TGI [10]: > 100 µM

SMILES: CCOc1ccc(N/C(=C(/C(Cl)=C(/Cl)NC(C)(C)C)[N+](=O)[O-])n2nnc3ccccc32)cc1
- TGI [1]: 39 µM
- TGI [4]: 33.3 µM
- TGI [5]: > 100 µM
- TGI [6]: 55.6 µM
- TGI [7]: 42.7 µM
- TGI [8]: > 100 µM
- TGI [9]: 41.9 µM
- TGI [10]: > 100 µM

SMILES: OC1CSc2nc3ccccc3n2C1 (centres undefined)
- TGI [1]: > 100 µM
- TGI [2]: > 100 µM
- TGI [3]: > 100 µM
- TGI [4]: > 100 µM
- TGI [5]: > 100 µM
- TGI [6]: > 100 µM
- TGI [7]: > 100 µM
- TGI [9]: > 100 µM
- TGI [10]: > 100 µM
